From the NIST ThermoML archive (doi:10.1016/j.jct.2009.11.011)

Key:
[1] = molar heat capacity at saturation pressure; conditions: Liquid
[2] = Liquid; for mass density: Vibrating tube method; for vapor or sublimation pressure: Ebulliometric method (Recirculating still)

c1ccc2c(c1)ccc1cccnc12 [benzo[h]quinoline]
Conditions | mass density [kg/m3] | molar heat capacity [J/K/mol]
[1], 400 K | – | 307.8
[1], 410 K | – | 312.9
[1], 420 K | – | 317.9
[1], 430 K | – | 323.1
[1], 440 K | – | 328.2
[1], 450 K | – | 333.3
[1], 460 K | – | 338.4
[1], 470 K | – | 343.5
[1], 480 K | – | 348.5
[1], 490 K | – | 353.5
[1], 500 K | – | 358.4
[1], 510 K | – | 363.3
[1], 520 K | – | 368.1
[1], 530 K | – | 372.7
[1], 540 K | – | 377.2
[1], 550 K | – | 381.6
[1], 560 K | – | 385.8
[1], 570 K | – | 389.7
[1], 580 K | – | 393.4
[1], 590 K | – | 396.9
[1], 600 K | – | 400
[2], 348.13 K | 1121.1 | –
[2], 373.12 K | 1104.9 | –
[2], 398.12 K | 1087.2 | –
[2], 423.11 K | 1068.1 | –
[2], 448.11 K | 1051.1 | –
[2], 473.11 K | 1030.8 | –
[2], 498.11 K | 1011.6 | –
[2], 523.11 K | 992.8 | –

c1ccc2c(c1)cnc1ccccc12 [phenanthridine]
Conditions | mass density [kg/m3] | molar heat capacity [J/K/mol] | vapor or sublimation pressure [kPa]
[1], 400 K | – | 314.5 | –
[1], 410 K | – | 319.1 | –
[1], 420 K | – | 323.8 | –
[1], 430 K | – | 328.3 | –
[1], 440 K | – | 332.9 | –
[1], 450 K | – | 337.4 | –
[1], 460 K | – | 341.8 | –
[1], 470 K | – | 346.2 | –
[1], 480 K | – | 350.6 | –
[1], 490 K | – | 354.9 | –
[1], 500 K | – | 359.2 | –
[1], 510 K | – | 363.4 | –
[1], 520 K | – | 367.6 | –
[1], 530 K | – | 371.7 | –
[1], 540 K | – | 375.7 | –
[1], 550 K | – | 379.7 | –
[1], 560 K | – | 383.7 | –
[1], 570 K | – | 387.6 | –
[1], 580 K | – | 391.4 | –
[1], 590 K | – | 395.2 | –
[1], 600 K | – | 398.8 | –
[2], 423.11 K | 1081.8 | – | –
[2], 448.11 K | 1062.7 | – | –
[2], 473.11 K | 1043.7 | – | –
[2], 473.89 K | – | – | 2
[2], 481.92 K | – | – | 2.666
[2], 493.84 K | – | – | 4
[2], 498.11 K | 1023.7 | – | –
[2], 502.72 K | – | – | 5.333
[2], 515.93 K | – | – | 7.999
[2], 523.11 K | 1003.9 | – | –
[2], 525.85 K | – | – | 10.67
[2], 533.86 K | – | – | 13.33
[2], 542.18 K | – | – | 16.66
[2], 548.11 K | 983.7 | – | –
[2], 549.09 K | – | – | 19.93
[2], 558.18 K | – | – | 25.02
[2], 567.34 K | – | – | 31.18
[2], 576.54 K | – | – | 38.56
[2], 585.79 K | – | – | 47.38
[2], 595.1 K | – | – | 57.82
[2], 604.47 K | – | – | 70.12
[2], 613.89 K | – | – | 84.53
[2], 623.35 K | – | – | 101.33
